# Measurements taken from paper PMC12040169 (PLOS Biology, 2025).
# Assay: in vitro
# Conditions: human, hela cells, % viability
row,Structure (SMILES),"viability at 28.5 h, 10 µM [%]"
1,CC(=O)c1ccc(-c2cc(C(=O)Nc3ccc4c(c3)OCCO4)cnc2-c2ccc(Cl)cc2)s1 [CBK036627],105
2,O=C(CSc1nnnn1-c1cccnc1)NC1CCCCCC1 [CBK270092],83.9
3,COc1ccc(-c2cc(C(=O)NC(C)c3ccccc3)c3cc(C(C)C)ccc3n2)cc1 (stereo not drawn) [CBK294466],101
4,Cc1cn([C@H]2C[C@@H](O)[C@@H](CO)O2)c(=O)nc1-n1cncn1 [CBK201235],82.9
5,Cc1cccc(C)c1NC(=O)CSc1nnc(C(O)c2ccccc2)n1C (stereo not drawn) [CBK269742],84.8
6,O=C1NCC2(CCN(Cc3ccccc3)CC2)Oc2ccccc21 [CBK285323],91.8
7,OCc1ccc(-n2ncc(-c3ccc(F)cc3F)n2)cc1 [CBK112731],97.3
8,Cc1cccc(NC(=O)C(c2ccccc2)N2CCOCC2)c1 (stereo not drawn) [CBK269331],103
9,COc1cc(CN2CCC(Cc3ccccc3-c3ccccc3)(C(N)=O)CC2)cc(OC)c1 [CBK285912],88.1
10,Cc1noc(C)c1C(=O)Nc1ccc(N2CCOCC2)c2nonc12 [CBK268125],94.7
11,O=C1CC(c2noc(-c3ccncc3)n2)CN1c1ccccc1 (stereo not drawn) [CBK288043],85.4
12,COc1ccc(C2CC(=O)C(=CNCCN3CCN(C(=O)c4ccccc4)CC3)C(=O)C2)cc1 (stereo not drawn) [CBK264762],104
13,OCCN(CCO)c1nc(-c2ccccc2)nc2sc(-c3ccccc3)cc12 [CBK265935],105
14,COc1ccc(CCOc2cnc(-c3ccccc3)c(N)n2)cc1 [CBK145065],98.8
15,O=C(CSc1ccccc1)NCc1ccncc1 [CBK058023],96.7
16,CC(C)(C)O/N=C/c1cccnc1 [CBK015761C],109
17,Cn1ncc2c1CCCN(C(=O)c1cccc(C(F)(F)F)c1)C2 [CBK282252],87.3
18,O=C(O)C1CCCCC1C(=O)NCCCN1CCCC1=O (stereo not drawn) [CBK286914],83.1
19,O=C(O)c1cnc(-c2ccccc2)nc1 [CBK261272],93.2
20,Cn1nnnc1SCC(=O)Nc1ccc(Cl)c(Cl)c1 [CBK058218],108
21,Cc1ccc(-c2cc(-c3ccccc3O)nc(N/N=C/c3cccnc3)n2)cc1 [CBK262308],85.2
22,Cc1ccc(C)c(NS(=O)(=O)c2cc(C(=O)NCc3ccccn3)ccc2C)c1 [CBK269110],98.3
23,CC(=O)Nc1cccc(NC(=O)N2CCCCC2CO)c1 (stereo not drawn) [CBK156181],101

row,Structure (SMILES),"viability at 28.5 h, 10 µM [%]"
1,COc1ccc2c(c1)/C(=C/c1cnc[nH]1)C(=O)N2 [CBK115354],72.5
2,O=[N+]([O-])c1cc(-c2nc(-c3ccco3)c(-c3ccco3)[nH]2)ccc1Br [CBK019778],86.3
3,Nc1cc2cccnc2nc1-c1cccc2cccnc12 [CBK067609],99.9
4,O=C(CSc1ncnc2c1cnn2-c1ccccc1)Nc1ccccc1 [CBK269408],96.4
5,COc1ccc(Sc2nccc(C(F)(F)F)n2)cc1OC [CBK093772],90.4
6,Cc1nn(CCC#N)c(C)c1CCC(=O)NCc1ccccn1 [CBK305693],82.5
7,CCc1c(C)nc2n(c1=O)C(CS(=O)(=O)c1ccccc1)CS2 (stereo not drawn) [CBK268949],94.7
8,CC(C)C(=O)N1CCC(n2nc(-c3cccs3)ccc2=O)CC1 [CBK284181],86.6
9,COc1ccc2c(c1)OC1(CCN(C(=O)c3cc(OC)c(C)c(OC)c3)CC1)NC2=O [CBK166244],82.6
10,O=C(CSc1ncnc2c1oc1ccccc12)NC1CCCCC1 [CBK287396],95.4
11,CC(=O)NCCSc1cc(NC(C)C)ncn1 [CBK105293],96.8
12,Brc1ccc(-c2nnco2)cc1 [CBK026512],84.3
13,COc1ccccc1NS(=O)(=O)c1ccc(N2CCN3CCCC3C2)c(N)c1 (stereo not drawn) [CBK001266],92.6
14,O=C(Cn1c(-c2cccs2)n[nH]c1=S)N1CCC(c2nc3cc(Cl)ccc3o2)CC1 [CBK297765],95
15,Cc1csc(CN(C)C(=O)c2cc3sccc3[nH]2)n1 [CBK304334],92.7
16,Cn1ccnc1[S+]([O-])Cc1nc2ccccc2s1 (stereo not drawn) [CBK005549],91.5
17,Cc1cc(C)c2c(c1)cc(C)c1nn(CC(=O)NC3CC3)c(=O)n12 [CBK283877],83.5
18,Cc1noc(C)c1NC(=O)c1cc2ccccc2n1C [CBK200311],108
19,CC(NC(=O)c1c2c(nn1C)CCCC2)c1ccccn1 (stereo not drawn) [CBK281888],95.2
20,CCOC(=O)CN1CCN(S(=O)(=O)c2ccc(F)c(Cl)c2)CC1 [CBK043782],89.3
21,O=C(CC(=O)Nc1c(Cl)cccc1C(F)(F)F)Nc1c(Cl)cccc1C(F)(F)F [CBK263148],103
22,O=C1NC(=O)C(CCCCN2CCC[C@@H]2CN2CCCC2)N1 (stereo partly drawn) [CBK149110],93.4
23,N=C1NC(=O)/C(=C/c2ccc(OS(=O)(=O)c3ccc4ccccc4c3)cc2)S1 [CBK263605],106

row,Structure (SMILES),"viability at 28.5 h, 10 µM [%]"
1,O=CNC(Cc1ccc(O)c([N+](=O)[O-])c1)C(=O)O (stereo not drawn) [CBK262421],101
2,CC(C)C1OC(NC2CC(C)(C)NC(C)(C)C2)=NC1=O (stereo not drawn) [CBK070360T],97.1
3,C=CCOc1ccc2ccccc2c1CNc1nc[nH]n1 [CBK267296],87.9
4,COc1ccc(Nc2cc(-c3ccsc3)ncn2)cc1OC [CBK090820],97.2
5,Cn1cccc1C(=O)NCc1ccc(OC2CCNCC2)cc1 [CBK036360T],93
6,O=C1CC2(CCN(C(=O)c3ccc4cc[nH]c4c3)CC2)Oc2ccc(CN3CCOCC3)cc21 [CBK169469],121
7,CC(=O)N1CCC2(CCCC[C@H]3CN(CC(=O)N(C)C)CC[C@@H]3NC(=O)CNC2=O)CC1 [CBK292163],94.6
8,COc1ccc(CC(=O)N2CCC(c3cccc(Cc4cccc(F)c4)n3)CC2)cc1 [CBK286504],100
9,COc1ccc(C(=O)N2CC[C@H]3NC(=O)N(c4ccc(F)cc4)C(=O)[C@H]32)cc1 [CBK289325],86.9
10,CCCC(=O)N1CCC(C(=O)Nc2ccccc2F)CC1 [CBK304346],108
11,Cc1ccc(OC(=O)c2ccc(S(=O)(=O)N(C)C)cc2)c(-n2nc3ccccc3n2)c1 [CBK267805],81.2
12,O=C(O)c1[nH]c2ccccc2c1C(c1cccs1)c1c(C(=O)O)[nH]c2ccccc12 [CBK267786],118
13,COc1ccc(OCC(=O)Nc2ccc(C(=O)O)c(Cl)c2)cc1 [CBK287108],104
14,COc1ccc(/C=C/C(=O)O)cc1S(=O)(=O)NCc1ccccc1 [CBK287252],87.9
15,CCOC(=O)c1c(NC(=O)C2CCCN2S(=O)(=O)c2ccccc2)sc2c1CCCC2 (stereo not drawn) [CBK265012],92
16,O=C(CSc1nnc(Cc2ccccc2)o1)Nc1c(Cl)cc(Cl)cc1Cl [CBK266119],99.8
17,C[C@@H]1CN(C(=O)c2cscn2)C[C@H](C)O1 [CBK200371],90
18,CCOc1ccccc1-c1ccccc1NC(=O)c1ccc(-n2nc(C)cc2C)cc1 [CBK285845],54.1
19,COc1ccc2cc(/C=N/NC(=O)CN3CCCCC3)c(Cl)nc2c1 [CBK018181],95.3
20,Cc1cc(C)n(C(C)CC(=O)NC(C)c2nc3ccccc3s2)n1 (stereo not drawn) [CBK281469],93.2
21,CC(Oc1ccc(-c2ccccc2)cc1)C(=O)Nc1ccc2c(c1)OCCO2 (stereo not drawn) [CBK268002],92.3
22,O=C(O)CCCNC(=O)c1cncc(O)c1 [CBK262060],81.8
23,CC(C)NC(=O)CN1CCN(c2ccc(C#N)cc2Cl)CC1 [CBK305470],88.3

row,Structure (SMILES),"viability at 28.5 h, 10 µM [%]"
1,CS(=O)(=O)CCOCCNC(=O)c1cc(Br)cnc1Cl [CBK305178],86.4
2,CCNc1cccnc1N1CCN(C(=O)CCC(=O)c2ccc(NS(C)(=O)=O)cc2)CC1 [CBK010701],98.2
3,CCN(CC)CCCNC(=O)N1CCN(c2ccc(F)cc2)CC1 [CBK156419],88.6
4,CCOc1cc(C=O)ccc1OCc1c(C)no[n+]1[O-] [CBK263449],92.1
5,COc1ccc(S(=O)(=O)N(C)CC(=O)O)cc1 [CBK287086],85.9
6,COc1cccc(-c2cnc(N)c(NCc3ccco3)n2)c1 [CBK063684],99.6
7,CCCOc1ccc(C(C)=O)cc1CC(C(N)=O)C(N)=O [CBK263309],90.6
8,CCN1C(=O)CC(C(=O)O)S/C1=N\c1ccc(OC)cc1 (stereo not drawn) [CBK287266],105
9,Cc1ccc(N2CCN(S(=O)(=O)c3ccc(I)cc3)CC2)c(C)c1 [CBK098562],91.7
10,FC(F)(F)c1cc(-c2cn3ccnc3c(NC3CCOCC3)n2)cc(C(F)(F)F)c1 [CBK037278],107
11,O=C(O)CNC(=O)CNC(=O)Cn1c(-c2ccccc2)cc2ccccc21 [CBK286550],89.1
12,NC(=O)CCC(=O)N1CCC2(C/C=C/CCOc3ccccc3C(=O)NCCCNC2=O)CC1 [CBK292059],91.7
13,O=C1NC2(CCN(C(=O)Cc3c(F)ccc(F)c3F)CC2)Oc2ccc(-c3ccoc3)cc21 [CBK115848],83.2
14,COc1cc(CNC(=O)c2ccc(O)nc2)ccc1OCc1ccncc1 [CBK298297],96.9
15,Cc1ccc(OCC(=O)Nc2ccc3c(c2)C(=O)Nc2ccccc2O3)cc1 [CBK287660],88.2
16,O=C(Nc1nccs1)c1ccc2[nH]ccc2c1 [CBK161731],90.5
17,Cc1ccc(S(=O)(=O)NCC(Oc2ccc([N+](=O)[O-])cc2)c2ccccc2)cc1 (stereo not drawn) [CBK262208],101
18,Nc1ncnc(Nc2cccc(C(F)(F)F)c2)n1 [CBK017403],82.4
19,CCCS(=O)(=O)N1Cc2c(ncn2C)C[C@H]1C(=O)OC [CBK288991],90.2
20,CC(C)Cc1cnc2c(c1SCc1ccc(F)cc1)c(=O)n(C)c(=O)n2C [CBK294409],95.6

# Same assay, conditions: human, hela cells, % viability, bulk resorufin, single well
row,Structure (SMILES),"viability at 28.5 h, 10 µM [%]"
1,CCOC(=O)C1(c2ccccc2)CCN(C(=O)C2COc3ccccc3O2)CC1 (stereo not drawn) [CBK132178],93.3
